Laboratory results reported in patent US10799507B2, “5-(7H-pyrrolo[2,3-d]pyrimidin-4-yl)-5-azaspiro[2.5]octane-8-carboxylic acid derivatives as novel JAK kinase inhibitors” (LEO Pharma A/S, priority 2017, dated 2020).
pEC50: −log10 of the molar value.

Assays:
Format in all cases: biochemical
JAK2 = JAK2 (Homo sapiens (Human), UniProt O60674); assay: JAK kinase assay (HTRF), JAK2; conditions: catalytic domain, ATP at Km (4 μM)
Procedure: (§1) Human baculovirus-expressed JAK1, 2, 3 and TYK2 were purchased from Carna Biosciences, Inc. All four purified enzymes contain only the catalytic domain. JAK1 (aa 850-1154) and TYK2 (aa 871-1187) are expressed with an N-terminally fused GST-tag, and JAK2 and JAK3 with an N-terminally fused His-tag.
(§2) Inhibition of phosphorylation of a synthetic peptide was measured in an HTRF-based assay using the TK substrate-Biotin from the Cisbio HTRFKinEASE TK kit. First, 2 μl of TK solution (TK substrate-biotin in kinase buffer [1× enzymatic buffer from HTRFKinEASE TK kit, 1 mM DTT]) is added to a plate containing 1 μl prediluted compound (final assay concentration DMSO: 0.75%). Then, 5 μl kinase-ATP mix (prepared in kinase buffer) is added to the wells and the plates are incubated at RT for 20-30 min. For all four kinases a concentration of ATP that corresponded to the Km for ATP was used. The final concentrations of buffers, substrate, kinase and ATP were: JAK1: 50 mM Hepes buffer pH 7.0, 0.01% BSA, 10 mM MgCl2, 1 mM DTT, 7 μM ATP, 50 nM SEB, 1 μM TK Substrate-Biotin and 5 ng JAK1; JAK2: 50 mM Hepes buffer pH 7.0, 0.01% BSA, 5 mM MgCl2, 1 mM DTT, 4 μM ATP, 1 μM TK Substrate-Biotin and 0.1 ng JAK2; JAK3: 50 mM Hepes buffer pH 7.0, 0.01% BSA, 5 mM MgCl2, 1 mM DTT, 2 μM ATP, 1 μM TK Substrate-Biotin and 0.3 ng JAK3; TYK2: 50 mM Hepes buffer pH 7.0, 0.01% BSA, 5 mM MgCl2, 1 mM DTT, 13 μM ATP, 50 nM SEB, 1 μM TK Substrate-Biotin and 0.8 ng TYK2. Thereafter, the kinase reaction is stopped by adding 4 μl detection mix (final concentrations: 50 mM Hepes buffer pH 7.0, 0.01% BSA, 0.8 M KF, 20 mM EDTA, 42 nM Streptavidin-XL665 and 1:400 STK Ab Cryptate) and the plates are incubated overnight in the dark. The HTRF signal is read using an Envision plate reader.

JAK3 = JAK3 (Homo sapiens (Human), UniProt P52333); assay: JAK kinase assay (HTRF), JAK3; conditions: catalytic domain, ATP at Km (2 μM)
JAK3, sequence (P52333 822-1111): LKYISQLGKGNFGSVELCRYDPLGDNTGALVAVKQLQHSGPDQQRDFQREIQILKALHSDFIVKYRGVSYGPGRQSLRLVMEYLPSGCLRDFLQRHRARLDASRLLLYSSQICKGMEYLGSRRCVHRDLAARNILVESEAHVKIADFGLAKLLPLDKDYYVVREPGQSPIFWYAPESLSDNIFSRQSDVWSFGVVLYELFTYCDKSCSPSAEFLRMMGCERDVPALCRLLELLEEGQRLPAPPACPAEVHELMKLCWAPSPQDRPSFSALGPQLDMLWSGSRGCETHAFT
Procedure: as §1, §2
(§3) In Table 1 selected JAK kinase inhibitory activities are listed along with analytical tR and observed M+H^+ data (UPLC-MS method 7).

TYK2 = TYK2 (Homo sapiens (Human), UniProt P29597); assay: JAK kinase assay (HTRF), TYK2; conditions: catalytic domain, ATP at Km (13 μM)
TYK2, sequence (P29597 871-1187): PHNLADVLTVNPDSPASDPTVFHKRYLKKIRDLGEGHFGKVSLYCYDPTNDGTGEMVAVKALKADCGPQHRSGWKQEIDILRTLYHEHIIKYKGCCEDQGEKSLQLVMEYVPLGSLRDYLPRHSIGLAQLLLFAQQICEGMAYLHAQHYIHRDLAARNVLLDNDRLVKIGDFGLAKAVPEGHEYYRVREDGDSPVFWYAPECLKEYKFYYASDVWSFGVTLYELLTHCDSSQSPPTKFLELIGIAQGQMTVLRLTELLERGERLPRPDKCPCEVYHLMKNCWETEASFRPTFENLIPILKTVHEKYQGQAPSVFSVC
Procedure: as §1, §2, §3

JAK1 = JAK1 (Homo sapiens (Human), UniProt P23458); assay: JAK kinase assay (HTRF), JAK1; conditions: catalytic domain, ATP at Km (7 μM)
JAK1, sequence (P23458 850-1154): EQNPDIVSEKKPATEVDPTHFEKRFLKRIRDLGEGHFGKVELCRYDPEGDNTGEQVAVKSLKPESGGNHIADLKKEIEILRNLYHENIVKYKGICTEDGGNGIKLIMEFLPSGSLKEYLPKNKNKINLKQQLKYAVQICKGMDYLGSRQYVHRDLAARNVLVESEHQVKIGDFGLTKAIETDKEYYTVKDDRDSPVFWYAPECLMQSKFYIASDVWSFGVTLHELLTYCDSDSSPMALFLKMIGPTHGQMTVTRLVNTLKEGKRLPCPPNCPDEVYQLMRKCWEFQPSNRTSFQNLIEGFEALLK
Procedure: as §1, §2

JAK2, sequence (O60674 849-1124): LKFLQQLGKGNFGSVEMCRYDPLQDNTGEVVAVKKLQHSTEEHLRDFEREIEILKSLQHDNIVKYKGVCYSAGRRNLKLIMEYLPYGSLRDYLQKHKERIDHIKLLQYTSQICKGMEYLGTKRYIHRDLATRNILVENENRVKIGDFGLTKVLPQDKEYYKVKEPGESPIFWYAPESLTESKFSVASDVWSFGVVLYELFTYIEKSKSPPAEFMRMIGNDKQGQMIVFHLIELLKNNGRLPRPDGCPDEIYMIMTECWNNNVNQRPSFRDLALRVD

SMILES	pEC50 (JAK2)	pEC50 (JAK3)	pEC50 (TYK2)	pEC50 (JAK1)
CCc1cc(C#N)ccc1[C@H](CO)NC(=O)[C@H]1CCN(c2ncnc3[nH]ccc23)CC12CC2 [Example 89, (8S)-N-[(1R)-1-(4-cyano-2-ethyl-phenyl)-2-hydroxy-ethyl]-5-(7H-pyrrolo[2,3-d]pyrimidin-4-yl)-5-azaspiro[2.5]octane-8-carboxamide]	7.51	7.27	6.55	8.12
C[C@@H](NC(=O)C1CCN(c2ncnc3[nH]ccc23)CC12CC2)c1cccc(C#N)c1 (stereo partly drawn) [Example 117, N-[(1R)-1-(3-cyanophenyl)ethyl]-5-(7H-pyrrolo[2,3-d]pyrimidin-4-yl)-5-azaspiro[2.5]octane-8-carboxamide]	7.67	7.13	–	7.91
C[C@@H](NC(=O)[C@H]1CCN(c2ncnc3[nH]ccc23)CC12CC2)c1ccc(C#N)cc1F [Example 101, (8S)-N-[(1R)-1-(4-cyano-2-fluoro-phenyl)ethyl]-5-(7H-pyrrolo[2,3-d]pyrimidin-4-yl)-5-azaspiro[2.5]octane-8-carboxamide]	7.14	6.80	6.29	8.03
C[C@@H](NC(=O)C1CCN(c2ncnc3[nH]ccc23)CC12CC2)c1ccccc1 (stereo partly drawn) [Example 136, N-[(1R)-1-phenylethyl]-5-(7H-pyrrolo[2,3-d]pyrimidin-4-yl)-5-azaspiro[2.5]octane-8-carboxamide]	7.26	6.95	5.84	7.47
COc1cc([C@@H](C)NC(=O)C2CCN(c3ncnc4[nH]ccc34)CC23CC3)ccc1F (stereo partly drawn) [Example 143, N-[(1R)-1-(4-fluoro-3-methoxy-phenyl)ethyl]-5-(7H-pyrrolo[2,3-d]pyrimidin-4-yl)-5-azaspiro[2.5]octane-8-carboxamide]	7.04	6.70	–	7.35
N#Cc1ccc([C@H](CO)NC(=O)[C@H]2CCN(c3ncnc4[nH]ccc34)CC23CC3)nc1 [Example 47, (8S)-N-[(1R)-1-(5-cyano-2-pyridyl)-2-hydroxy-ethyl]-5-(7H-pyrrolo[2,3-d]pyrimidin-4-yl)-5-azaspiro[2.5]octane-8-carboxamide]	7.86	7.49	6.75	8.51
O=C(N[C@@H](CO)C1CCC1)[C@H]1CCN(c2ncnc3[nH]ccc23)CC12CC2 [Example 148, (8S)-N-[(1R)-1-cyclobutyl-2-hydroxy-ethyl]-5-(7H-pyrrolo[2,3-d]pyrimidin-4-yl)-5-azaspiro[2.5]octane-8-carboxamide]	6.86	6.79	5.97	7.15
CC(CO)(NC(=O)C1CCN(c2ncnc3[nH]ccc23)CC12CC2)c1ccccc1 (stereo not drawn) [Example 118, N-(2-hydroxy-1-methyl-1-phenyl-ethyl)-5-(7H-pyrrolo[2,3-d]pyrimidin-4-yl)-5-azaspiro[2.5]octane-8-carboxamide]	7.61	7.11	6.08	7.88
N#Cc1ccc([C@H](O)CNC(=O)[C@@H]2CCN(c3ncnc4[nH]ccc34)CC23CC3)cc1 [Example 142, (8R)-N-[(2S)-2-(4-cyanophenyl)-2-hydroxy-ethyl]-5-(7H-pyrrolo[2,3-d]pyrimidin-4-yl)-5-azaspiro[2.5]octane-8-carboxamide]	6.75	6.56	–	7.37
COc1cccc([C@@H](C)NC(=O)C2CCN(c3ncnc4[nH]ccc34)CC23CC3)c1 (stereo partly drawn) [Example 139, N-[(1R)-1-(3-methoxyphenyl)ethyl]-5-(7H-pyrrolo[2,3-d]pyrimidin-4-yl)-5-azaspiro[2.5]octane-8-carboxamide]	7.21	7.00	–	7.41
C[C@@H](NC(=O)C1CCN(c2ncnc3[nH]ccc23)CC12CC2)c1cccc(F)c1 (stereo partly drawn) [Example 134, N-[(1R)-1-(3-fluorophenyl)ethyl]-5-(7H-pyrrolo[2,3-d]pyrimidin-4-yl)-5-azaspiro[2.5]octane-8-carboxamide]	7.09	6.77	–	7.48
C[C@H](NC(=O)[C@H]1CCN(c2ncnc3[nH]ccc23)CC12CC2)[C@@H](O)c1cccnc1 [Example 151, (8S)-N-[(1S,2S)-2-hydroxy-1-methyl-2-(3-pyridyl)ethyl]-5-(7H-pyrrolo[2,3-d]pyrimidin-4-yl)-5-azaspiro[2.5]octane-8-carboxamide]	–	7.53	6.74	7.96
COc1ccc([C@H](C)NC(=O)C2CCN(c3ncnc4[nH]ccc34)CC23CC3)cc1 (stereo partly drawn) [Example 66, N-[(1S)-1-(4-methoxyphenyl)ethyl]-5-(7H-pyrrolo[2,3-d]pyrimidin-4-yl)-5-azaspiro[2.5]octane-8-carboxamide]	8.08	7.39	–	8.32
C[C@H](NC(=O)[C@H]1CCN(c2ncnc3[nH]ccc23)CC12CC2)[C@@H](O)c1ccccc1 [Example 152, (8S)-N-[(1S,2S)-2-hydroxy-1-methyl-2-phenyl-ethyl]-5-(7H-pyrrolo[2,3-d]pyrimidin-4-yl)-5-azaspiro[2.5]octane-8-carboxamide]	–	8.24	7.56	8.57
C[C@@H](NC(=O)C1CCN(c2ncnc3[nH]ccc23)CC12CC2)c1ccc(F)c(C#N)c1 (stereo partly drawn) [Example 123, N-[(1R)-1-(3-cyano-4-fluoro-phenyl)ethyl]-5-(7H-pyrrolo[2,3-d]pyrimidin-4-yl)-5-azaspiro[2.5]octane-8-carboxamide]	7.67	7.19	–	7.79
C[C@H](NC(=O)[C@H]1CCN(c2ncnc3[nH]ccc23)CC12CC2)[C@@H](O)c1cccc(F)c1 [Example 150, (8S)-N-[(1S,2S)-2-(3-fluorophenyl)-2-hydroxy-1-methyl-ethyl]-5-(7H-pyrrolo[2,3-d]pyrimidin-4-yl)-5-azaspiro[2.5]octane-8-carboxamide]	–	8.51	7.68	8.57
CC(NC(=O)C1CCN(c2ncnc3[nH]ccc23)CC12CC2)c1ccc(F)cc1 (stereo not drawn) [Example 61, N-[1-(4-fluorophenyl)ethyl]-5-(7H-pyrrolo[2,3-d]pyrimidin-4-yl)-5-azaspiro[2.5]octane-8-carboxamide]	8.14	7.66	–	8.37
COc1cc(F)ccc1[C@@H](C)NC(=O)C1CCN(c2ncnc3[nH]ccc23)CC12CC2 (stereo partly drawn) [Example 131, N-[(1R)-1-(4-fluoro-2-methoxy-phenyl)ethyl]-5-(7H-pyrrolo[2,3-d]pyrimidin-4-yl)-5-azaspiro[2.5]octane-8-carboxamide]	7.52	6.61	–	7.61
COc1ccc([C@@H](C)NC(=O)C2CCN(c3ncnc4[nH]ccc34)CC23CC3)cc1F (stereo partly drawn) [Example 124, N-[(1R)-1-(3-fluoro-4-methoxy-phenyl)ethyl]-5-(7H-pyrrolo[2,3-d]pyrimidin-4-yl)-5-azaspiro[2.5]octane-8-carboxamide]	7.22	6.84	–	7.73
C[C@@H](NC(=O)C1CCN(c2ncnc3[nH]ccc23)CC12CC2)c1ccc(F)c(F)c1 (stereo partly drawn) [Example 113, N-[(1R)-1-(3,4-difluorophenyl)ethyl]-5-(7H-pyrrolo[2,3-d]pyrimidin-4-yl)-5-azaspiro[2.5]octane-8-carboxamide]	7.71	7.29	–	7.94
N#Cc1cccc(CNC(=O)C2CCN(c3ncnc4[nH]ccc34)CC23CC3)c1 (stereo not drawn) [Example 70, N-[(3-cyanophenyl)methyl]-5-(7H-pyrrolo[2,3-d]pyrimidin-4-yl)-5-azaspiro[2.5]octane-8-carboxamide]	8.07	7.49	–	8.26
COc1cncc([C@@H](C)NC(=O)C2CCN(c3ncnc4[nH]ccc34)CC23CC3)c1 (stereo partly drawn) [Example 144, N-[(1R)-1-(5-methoxy-3-pyridyl)ethyl]-5-(7H-pyrrolo[2,3-d]pyrimidin-4-yl)-5-azaspiro[2.5]octane-8-carboxamide]	7.09	6.80	–	7.31
